According to patent publication US8894927B2, “Shower sterilisation system and method of use thereof” (Omnia-Klenz Ltd., priority 2010, dated 2014):

Experiments:
[1] = system: yeast and mold counts of shower water; assay: Hadfield office shower head, Petrifilm yeast and mold count after biocide treatment; details: 0.05% solution, 5 ppm, 30 min contact
[2] = system: aerobic counts of shower water; assay: Hadfield office shower head, Petrifilm aerobic count after biocide treatment; details: 5 ppm; for Mb. Analyses Aerobic: 0.05% solution, 30 min contact
[3] = 24 hours after biocide addition, (1) Resting, 18 °C
[4] = 24 hours after biocide addition, (2) Shower running, 10 °C
[5] = 24 hours after biocide addition, (3) Shower running, 15 °C
[6] = 24 hours after biocide addition, (4) Shower running, 20 °C
[7] = 24 hours after biocide addition, (5) Shower running, 25 °C
[8] = 24 hours after biocide addition, (6) Shower running, 30 °C
[9] = 24 hours after biocide addition, (7) Shower running, 35 °C
[10] = 24 hours after biocide addition, (8) Shower running, 40 °C
[11] = 24 hours after biocide addition, (9) Shower running - full heat, 43 °C
[12] = 48 hours after biocide addition, (1) Resting, 17 °C
[13] = 48 hours after biocide addition, (2) Shower running, 10 °C
[14] = 48 hours after biocide addition, (3) Shower running, 15 °C
[15] = 48 hours after biocide addition, (4) Shower running, 20 °C
[16] = 48 hours after biocide addition, (5) Shower running, 25 °C
[17] = 48 hours after biocide addition, (6) Shower running, 30 °C
[18] = 48 hours after biocide addition, (7) Shower running, 35 °C
[19] = 48 hours after biocide addition, (8) Shower running, 40 °C
[20] = 48 hours after biocide addition, (9) Shower running - full heat, 42 °C

CC1(C)C(=O)N(Cl)C(=O)N1Br [Omnia-Stat SP, 1-Bromo-3-chloro-5,5-dimethylhydantoin, reference compound]
Mb. Analyses Yeast/Mold [1, 3]: No growth | Mb. Analyses Yeast/Mold [1, 4]: No growth | Mb. Analyses Yeast/Mold [1, 5]: No growth | Mb. Analyses Yeast/Mold [1, 6]: 4 yeast cols/ml | Mb. Analyses Yeast/Mold [1, 7]: 7 yeast cols/ml | Mb. Analyses Yeast/Mold [1, 8]: 3 yeast cols/ml | Mb. Analyses Yeast/Mold [1, 9]: 5 yeast cols/ml | Mb. Analyses Yeast/Mold [1, 10]: No growth | Mb. Analyses Yeast/Mold [1, 11]: No growth | Mb. Analyses Yeast/Mold [1, 12]: 9 yeast cols/ml | Mb. Analyses Yeast/Mold [1, 13]: 8 yeast cols/ml | Mb. Analyses Yeast/Mold [1, 14]: 6 yeast cols/ml | Mb. Analyses Yeast/Mold [1, 15]: 19 yeast cols/ml | Mb. Analyses Yeast/Mold [1, 16]: No growth | Mb. Analyses Yeast/Mold [1, 17]: 6 yeast cols/ml | Mb. Analyses Yeast/Mold [1, 18]: No growth | Mb. Analyses Yeast/Mold [1, 19]: 10 yeast cols/ml | Mb. Analyses Yeast/Mold [1, 20]: 5 yeast cols/ml | Mb. Analyses Aerobic [2, 3]: 480 cols/ml | Mb. Analyses Aerobic [2, 4]: No growth | Mb. Analyses Aerobic [2, 5]: 1 cols/ml | Mb. Analyses Aerobic [2, 6]: 5 cols/ml | Mb. Analyses Aerobic [2, 7]: 10 cols/ml | Mb. Analyses Aerobic [2, 8]: 5 cols/ml | Mb. Analyses Aerobic [2, 9]: 6 cols/ml | Mb. Analyses Aerobic [2, 10]: No growth | Mb. Analyses Aerobic [2, 11]: No growth | Mb. Analyses Aerobic [2, 12]: 2600 cols/ml | Mb. Analyses Aerobic [2, 13]: 3 cols/ml | Mb. Analyses Aerobic [2, 14]: 3 cols/ml | Mb. Analyses Aerobic [2, 15]: 5 cols/ml | Mb. Analyses Aerobic [2, 16]: 9 cols/ml | Mb. Analyses Aerobic [2, 17]: 2 cols/ml | Mb. Analyses Aerobic [2, 18]: 10 cols/ml | Mb. Analyses Aerobic [2, 19]: 6 cols/ml | Mb. Analyses Aerobic [2, 20]: No growth | microbiological recovery after two days compared with the basic product (Table 3) ([2]; shower after 19 days resting): considerably greater
